Measurements: ChEMBL document CHEMBL4507277

Key:
[1] = test system: Tyrosine-protein kinase ABL1 (Homo sapiens), P00519 [F317I]; conditions: Compound concentration 1000.0 nM
[2] = test system: Tyrosine-protein kinase ABL1 (Homo sapiens), P00519 [M351T]; conditions: Compound concentration 1000.0 nM
[3] = biological target: Atypical kinase COQ8B, mitochondrial (Homo sapiens) (UniProt Q96D53); conditions: Compound concentration 1000.0 nM
[4] = biological target: RAC-gamma serine/threonine-protein kinase (Homo sapiens) (UniProt Q9Y243); conditions: Compound concentration 1000.0 nM
[5] = test system: ALK tyrosine kinase receptor (Homo sapiens), Q9UM73 [L1196M]; conditions: Compound concentration 1000.0 nM
ALK tyrosine kinase receptor (Homo sapiens), Q9UM73 [L1196M], sequence (Q9UM73 whole entry L1196M, looked up): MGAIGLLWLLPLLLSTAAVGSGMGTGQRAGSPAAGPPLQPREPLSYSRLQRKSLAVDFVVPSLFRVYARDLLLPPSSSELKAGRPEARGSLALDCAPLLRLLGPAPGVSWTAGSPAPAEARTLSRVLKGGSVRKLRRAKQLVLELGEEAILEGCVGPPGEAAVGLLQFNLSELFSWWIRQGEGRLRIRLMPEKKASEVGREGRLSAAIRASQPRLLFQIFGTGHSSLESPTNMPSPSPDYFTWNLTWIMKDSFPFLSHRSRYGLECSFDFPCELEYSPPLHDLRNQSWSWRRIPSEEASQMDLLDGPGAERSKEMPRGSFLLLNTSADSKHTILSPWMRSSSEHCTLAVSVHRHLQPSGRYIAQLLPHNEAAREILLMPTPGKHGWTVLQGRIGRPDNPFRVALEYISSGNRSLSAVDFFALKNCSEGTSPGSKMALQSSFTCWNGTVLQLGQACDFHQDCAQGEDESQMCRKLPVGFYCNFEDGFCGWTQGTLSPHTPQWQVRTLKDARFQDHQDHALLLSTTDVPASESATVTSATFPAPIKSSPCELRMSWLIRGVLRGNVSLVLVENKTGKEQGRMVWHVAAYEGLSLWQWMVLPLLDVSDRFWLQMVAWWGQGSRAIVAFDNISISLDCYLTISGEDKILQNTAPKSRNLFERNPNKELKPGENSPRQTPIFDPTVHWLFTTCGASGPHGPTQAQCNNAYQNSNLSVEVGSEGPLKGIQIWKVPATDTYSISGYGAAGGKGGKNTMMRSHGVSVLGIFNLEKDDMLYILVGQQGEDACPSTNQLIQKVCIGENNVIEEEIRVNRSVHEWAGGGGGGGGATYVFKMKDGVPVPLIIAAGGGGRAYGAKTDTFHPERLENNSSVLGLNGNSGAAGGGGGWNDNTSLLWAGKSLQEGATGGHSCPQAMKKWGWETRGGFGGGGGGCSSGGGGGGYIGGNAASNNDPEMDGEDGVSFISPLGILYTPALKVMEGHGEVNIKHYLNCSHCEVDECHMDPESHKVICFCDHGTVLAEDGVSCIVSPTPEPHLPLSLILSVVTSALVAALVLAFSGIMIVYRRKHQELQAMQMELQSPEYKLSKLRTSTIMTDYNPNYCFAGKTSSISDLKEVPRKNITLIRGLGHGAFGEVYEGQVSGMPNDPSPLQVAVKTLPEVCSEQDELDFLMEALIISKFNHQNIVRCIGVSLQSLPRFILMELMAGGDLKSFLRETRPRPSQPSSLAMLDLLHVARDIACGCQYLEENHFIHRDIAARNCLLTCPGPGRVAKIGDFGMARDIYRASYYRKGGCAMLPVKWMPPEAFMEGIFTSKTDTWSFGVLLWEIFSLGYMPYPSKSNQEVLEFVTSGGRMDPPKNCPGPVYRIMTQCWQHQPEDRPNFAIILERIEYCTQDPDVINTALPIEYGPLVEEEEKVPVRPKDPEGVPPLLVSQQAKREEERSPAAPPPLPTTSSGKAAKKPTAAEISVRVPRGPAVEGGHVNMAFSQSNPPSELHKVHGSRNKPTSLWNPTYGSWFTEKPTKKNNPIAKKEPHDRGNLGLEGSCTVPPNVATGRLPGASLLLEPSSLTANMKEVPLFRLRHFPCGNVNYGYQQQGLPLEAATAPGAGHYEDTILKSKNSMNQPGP

[6] = biological target: Aurora kinase A (Homo sapiens) (UniProt O14965); conditions: Compound concentration 1000.0 nM
[7] = biological target: Aurora kinase C (Homo sapiens) (UniProt Q9UQB9); conditions: Compound concentration 1000.0 nM
Aurora kinase C (Homo sapiens), sequence (Q9UQB9 whole entry, canonical isoform): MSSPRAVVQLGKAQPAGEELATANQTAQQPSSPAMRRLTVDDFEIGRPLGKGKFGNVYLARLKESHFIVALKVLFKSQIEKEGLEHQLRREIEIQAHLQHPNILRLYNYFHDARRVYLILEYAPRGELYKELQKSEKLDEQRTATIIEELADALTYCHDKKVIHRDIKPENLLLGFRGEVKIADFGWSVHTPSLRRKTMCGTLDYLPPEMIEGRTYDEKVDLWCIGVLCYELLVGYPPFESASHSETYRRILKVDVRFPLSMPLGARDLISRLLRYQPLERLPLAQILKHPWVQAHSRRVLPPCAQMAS

[8] = biological target: Casein kinase I isoform gamma-1 (Homo sapiens) (UniProt Q9HCP0); conditions: Compound concentration 1000.0 nM
Casein kinase I isoform gamma-1 (Homo sapiens), sequence (Q9HCP0 whole entry, looked up, canonical isoform): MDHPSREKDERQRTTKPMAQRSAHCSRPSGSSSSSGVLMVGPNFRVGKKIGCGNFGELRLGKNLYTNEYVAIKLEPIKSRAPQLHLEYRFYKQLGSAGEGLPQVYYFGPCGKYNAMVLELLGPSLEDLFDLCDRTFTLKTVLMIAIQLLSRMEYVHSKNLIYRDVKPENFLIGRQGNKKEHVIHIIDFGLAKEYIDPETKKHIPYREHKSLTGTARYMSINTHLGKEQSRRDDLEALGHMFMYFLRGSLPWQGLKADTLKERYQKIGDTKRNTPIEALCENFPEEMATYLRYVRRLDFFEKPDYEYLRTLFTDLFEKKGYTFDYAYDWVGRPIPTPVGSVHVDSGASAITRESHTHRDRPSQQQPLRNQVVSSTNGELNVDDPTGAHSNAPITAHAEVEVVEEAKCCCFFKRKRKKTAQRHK

[9] = biological target: Serine/threonine-protein kinase DCLK1 (Homo sapiens) (UniProt O15075); conditions: Compound concentration 1000.0 nM
[10] = biological target: Serine/threonine-protein kinase DCLK3 (Homo sapiens) (UniProt Q9C098); conditions: Compound concentration 1000.0 nM
[11] = test system: Epidermal growth factor receptor (Homo sapiens), P00533 [L858R,T790M]; conditions: Compound concentration 1000.0 nM
[12] = test system: Epidermal growth factor receptor (Homo sapiens), P00533 [UNDEFINED MUTATION]; conditions: Compound concentration 1000.0 nM
[13] = biological target: Ephrin type-A receptor 7 (Homo sapiens) (UniProt Q15375); conditions: Compound concentration 1000.0 nM
[14] = biological target: Mitogen-activated protein kinase 1 (Homo sapiens) (UniProt P28482); conditions: Compound concentration 1000.0 nM
[15] = biological target: Focal adhesion kinase 1 (Homo sapiens) (UniProt Q05397); conditions: Compound concentration 1000.0 nM
[16] = biological target: Fibroblast growth factor receptor 3 (Homo sapiens) (UniProt P22607); conditions: Compound concentration 1000.0 nM
[17] = biological target: Cyclin-G-associated kinase (Homo sapiens) (UniProt O14976); conditions: Compound concentration 1000.0 nM
[18] = biological target: Mitogen-activated protein kinase kinase kinase kinase 1 (Homo sapiens) (UniProt Q92918); conditions: Compound concentration 1000.0 nM
[19] = biological target: Insulin receptor (Homo sapiens) (UniProt P06213); conditions: Compound concentration 1000.0 nM
[20] = biological target: Mast/stem cell growth factor receptor Kit (Homo sapiens) (UniProt P10721); conditions: Compound concentration 1000.0 nM
[21] = test system: Hepatocyte growth factor receptor (Homo sapiens), P08581 [M1250T]; conditions: Compound concentration 1000.0 nM
[22] = biological target: Myosin light chain kinase, smooth muscle (Homo sapiens) (UniProt Q15746); conditions: Compound concentration 1000.0 nM
[23] = biological target: Serine/threonine-protein kinase NIM1 (Homo sapiens) (UniProt Q8IY84); conditions: Compound concentration 1000.0 nM
[24] = biological target: Serine/threonine-protein kinase OSR1 (Homo sapiens) (UniProt O95747); conditions: Compound concentration 1000.0 nM
[25] = biological target: Serine/threonine-protein kinase PAK 6 (Homo sapiens) (UniProt Q9NQU5); conditions: Compound concentration 1000.0 nM
[26] = biological target: Cyclin-dependent kinase 16 (Homo sapiens) (UniProt Q00536); conditions: Compound concentration 1000.0 nM
[27] = biological target: Platelet-derived growth factor receptor alpha (Homo sapiens) (UniProt P16234); conditions: Compound concentration 1000.0 nM
[28] = test system: Phosphatidylinositol 4,5-bisphosphate 3-kinase catalytic subunit alpha isoform (Homo sapiens), P42336 [H1047L]; conditions: Compound concentration 1000.0 nM
Phosphatidylinositol 4,5-bisphosphate 3-kinase catalytic subunit alpha isoform (Homo sapiens), P42336 [H1047L], sequence (P42336 whole entry H1047L, canonical isoform): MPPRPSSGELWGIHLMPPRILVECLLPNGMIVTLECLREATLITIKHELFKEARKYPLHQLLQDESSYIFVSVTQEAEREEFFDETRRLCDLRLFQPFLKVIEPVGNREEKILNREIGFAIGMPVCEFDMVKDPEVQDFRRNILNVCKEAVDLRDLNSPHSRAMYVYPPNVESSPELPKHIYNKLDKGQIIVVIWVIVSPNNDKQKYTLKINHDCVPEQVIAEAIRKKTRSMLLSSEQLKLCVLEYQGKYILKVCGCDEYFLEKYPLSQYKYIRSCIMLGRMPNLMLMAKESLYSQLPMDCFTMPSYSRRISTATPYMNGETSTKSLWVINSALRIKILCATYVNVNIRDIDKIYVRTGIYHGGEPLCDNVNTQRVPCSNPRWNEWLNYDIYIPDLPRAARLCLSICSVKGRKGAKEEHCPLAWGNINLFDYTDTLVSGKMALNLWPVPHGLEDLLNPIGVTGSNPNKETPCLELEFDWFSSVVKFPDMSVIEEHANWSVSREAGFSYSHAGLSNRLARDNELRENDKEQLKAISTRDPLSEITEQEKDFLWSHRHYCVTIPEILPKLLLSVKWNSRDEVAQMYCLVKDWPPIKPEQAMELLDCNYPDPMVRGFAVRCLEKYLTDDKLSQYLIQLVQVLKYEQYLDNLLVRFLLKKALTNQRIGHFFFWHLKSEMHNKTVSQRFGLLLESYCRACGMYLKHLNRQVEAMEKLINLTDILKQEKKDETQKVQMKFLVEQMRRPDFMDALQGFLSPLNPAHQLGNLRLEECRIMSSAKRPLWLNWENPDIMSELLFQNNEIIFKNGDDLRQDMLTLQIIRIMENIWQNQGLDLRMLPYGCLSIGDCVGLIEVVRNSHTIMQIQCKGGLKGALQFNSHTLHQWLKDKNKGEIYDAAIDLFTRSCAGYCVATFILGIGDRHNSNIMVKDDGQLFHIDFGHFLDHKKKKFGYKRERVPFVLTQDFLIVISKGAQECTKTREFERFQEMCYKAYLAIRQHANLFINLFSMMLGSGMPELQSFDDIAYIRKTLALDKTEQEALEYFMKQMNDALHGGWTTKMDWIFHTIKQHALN

[29] = biological target: Phosphatidylinositol 4-phosphate 5-kinase type-1 alpha (Homo sapiens) (UniProt Q99755); conditions: Compound concentration 1000.0 nM
Phosphatidylinositol 4-phosphate 5-kinase type-1 alpha (Homo sapiens), sequence (Q99755 whole entry): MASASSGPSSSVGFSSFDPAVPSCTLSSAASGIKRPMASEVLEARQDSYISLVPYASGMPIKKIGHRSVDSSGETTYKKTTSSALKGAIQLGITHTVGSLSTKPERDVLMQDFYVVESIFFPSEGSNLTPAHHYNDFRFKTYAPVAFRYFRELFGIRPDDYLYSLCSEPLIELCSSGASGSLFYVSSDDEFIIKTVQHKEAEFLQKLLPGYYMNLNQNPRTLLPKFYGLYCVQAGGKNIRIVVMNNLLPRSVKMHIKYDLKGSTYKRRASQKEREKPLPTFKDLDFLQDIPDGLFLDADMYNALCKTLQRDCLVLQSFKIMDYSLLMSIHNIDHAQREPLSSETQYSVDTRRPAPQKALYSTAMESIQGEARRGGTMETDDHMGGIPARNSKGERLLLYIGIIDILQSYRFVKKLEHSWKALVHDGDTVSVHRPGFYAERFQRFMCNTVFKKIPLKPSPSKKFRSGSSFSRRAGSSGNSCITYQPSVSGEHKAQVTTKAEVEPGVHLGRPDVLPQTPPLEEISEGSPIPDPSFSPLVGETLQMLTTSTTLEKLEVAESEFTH

[30] = biological target: Serine/threonine-protein kinase N2 (Homo sapiens) (UniProt Q16513); conditions: Compound concentration 1000.0 nM
[31] = biological target: cAMP-dependent protein kinase catalytic subunit PRKX (Homo sapiens) (UniProt P51817); conditions: Compound concentration 1000.0 nM
[32] = biological target: Serine/threonine-protein kinase RIO1 (Homo sapiens) (UniProt Q9BRS2); conditions: Compound concentration 1000.0 nM
[33] = biological target: Ribosomal protein S6 kinase alpha-4 (Homo sapiens) (UniProt O75676); conditions: Compound concentration 1000.0 nM
Ribosomal protein S6 kinase alpha-4 (Homo sapiens), sequence (O75676 whole entry, looked up): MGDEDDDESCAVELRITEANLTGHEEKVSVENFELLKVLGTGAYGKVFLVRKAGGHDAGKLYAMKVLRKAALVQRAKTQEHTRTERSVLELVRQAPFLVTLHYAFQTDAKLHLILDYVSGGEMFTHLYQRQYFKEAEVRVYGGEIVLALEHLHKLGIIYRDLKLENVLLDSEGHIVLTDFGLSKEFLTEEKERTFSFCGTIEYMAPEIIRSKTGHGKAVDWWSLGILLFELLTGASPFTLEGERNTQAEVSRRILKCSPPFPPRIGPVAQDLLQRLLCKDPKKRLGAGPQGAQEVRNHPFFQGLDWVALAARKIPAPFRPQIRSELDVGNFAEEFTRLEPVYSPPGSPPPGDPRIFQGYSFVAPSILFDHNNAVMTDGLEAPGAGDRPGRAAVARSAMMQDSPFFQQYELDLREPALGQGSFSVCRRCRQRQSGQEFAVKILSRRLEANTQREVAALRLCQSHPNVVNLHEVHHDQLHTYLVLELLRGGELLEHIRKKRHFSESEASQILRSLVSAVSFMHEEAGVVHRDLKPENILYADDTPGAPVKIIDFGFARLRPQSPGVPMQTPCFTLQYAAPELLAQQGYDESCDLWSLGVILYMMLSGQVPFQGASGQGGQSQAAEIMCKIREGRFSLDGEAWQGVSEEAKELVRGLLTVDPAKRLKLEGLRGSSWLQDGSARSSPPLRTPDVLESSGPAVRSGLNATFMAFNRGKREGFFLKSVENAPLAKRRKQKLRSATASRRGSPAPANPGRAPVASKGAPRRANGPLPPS

[34] = biological target: Ribosomal protein S6 kinase alpha-4 (Homo sapiens) (UniProt O75676); conditions: Compound concentration 1000.0 nM; remark: listed apart in the source
[35] = biological target: Ribosomal protein S6 kinase beta-1 (Homo sapiens) (UniProt P23443); conditions: Compound concentration 1000.0 nM
[36] = biological target: Serine/threonine-protein kinase TAO1 (Homo sapiens) (UniProt Q7L7X3); conditions: Compound concentration 1000.0 nM
[37] = biological target: BDNF/NT-3 growth factors receptor (Homo sapiens) (UniProt Q16620); conditions: Compound concentration 1000.0 nM
[38] = biological target: Serine/threonine-protein kinase ULK1 (Homo sapiens) (UniProt O75385); conditions: Compound concentration 1000.0 nM
[39] = biological target: Mitogen-activated protein kinase kinase kinase 20 (Homo sapiens) (UniProt Q9NYL2); conditions: Compound concentration 1000.0 nM
[40] = biological target: 5-hydroxytryptamine receptor 7 (Homo sapiens) (UniProt P34969); conditions: Compound concentration 10.0 uM
[41] = biological target: Kappa-type opioid receptor (Homo sapiens) (UniProt P41145); conditions: Compound concentration 10.0 uM

CCS(=O)(=O)c1cc2cc(C[C@@](O)(CC(C)(C)c3ccc(F)cc3C(N)=O)C(F)(F)F)[nH]c2cn1
inactive: residual activity [1] 100% | residual activity [2] 96% | residual activity [3] 100% | residual activity [4] 90% | residual activity [5] 100% | residual activity [6] 88% | residual activity [7] 81% | residual activity [8] 100% | residual activity [9] 100% | residual activity [10] 100% | residual activity [11] 83% | residual activity [12] 100% | residual activity [13] 94% | residual activity [14] 94% | residual activity [15] 100% | residual activity [16] 80% | residual activity [17] 71% | residual activity [18] 100% | residual activity [19] 86% | residual activity [20] 100% | residual activity [21] 90% | residual activity [22] 93% | residual activity [23] 51% | residual activity [24] 88% | residual activity [25] 77% | residual activity [26] 78% | residual activity [27] 99% | residual activity [28] 97% | residual activity [29] 100% | residual activity [30] 85% | residual activity [31] 77% | residual activity [32] 50% | residual activity [33] 78% | residual activity [34] 71% | residual activity [35] 80% | residual activity [36] 73% | residual activity [37] 84% | residual activity [38] 100% | residual activity [39] 100% | inhibition [40] 4.44% | inhibition [41] 28.3%

CCS(=O)(=O)c1cc2cc(C[C@](O)(CC(C)(C)c3ccc(F)cc3C(N)=O)C(F)(F)F)[nH]c2cn1
inactive: residual activity [1] 94% | residual activity [2] 94% | residual activity [3] 78% | residual activity [4] 100% | residual activity [5] 87% | residual activity [6] 88% | residual activity [7] 91% | residual activity [8] 96% | residual activity [9] 99% | residual activity [10] 100% | residual activity [11] 83% | residual activity [12] 100% | residual activity [13] 86% | residual activity [14] 100% | residual activity [15] 97% | residual activity [16] 100% | residual activity [17] 100% | residual activity [18] 100% | residual activity [19] 94% | residual activity [20] 95% | residual activity [21] 100% | residual activity [22] 96% | residual activity [23] 100% | residual activity [24] 90% | residual activity [25] 100% | residual activity [26] 100% | residual activity [27] 82% | residual activity [28] 96% | residual activity [29] 100% | residual activity [30] 100% | residual activity [31] 100% | residual activity [32] 80% | residual activity [33] 98% | residual activity [34] 94% | residual activity [35] 82% | residual activity [36] 88% | residual activity [37] 100% | residual activity [38] 100% | residual activity [39] 87% | inhibition [40] 4.98% | inhibition [41] 23.4%
